The values below are quoted from earlier work in patent US20220016054A1, “EPINEPHRINE PARENTERAL FORMULATIONS” (Somerset Therapeutics LLC, priority 2020, published 2022).

Series [1] relates to beta-adrenergic receptors.
For series [2] the following is noted: fraction of that of l-epinephrine.

`CNCC(=O)c1ccc(O)c(O)c1` [adrenalone]: the beta-adrenergic activity entry in series [1] is recorded as “little if any beta-adrenergic activity”.
For `CNC[C@H](O)c1ccc(O)c(O)c1` [d-epinephrine], the “pressor effect relative to l-epinephrine” value in series [2] was “about one-fifteenth”.
